Experiments:
[1] = tested on: zymosan-induced peritonitis; assay: Zymosan-induced peritoneal inflammation in mice; format: in vivo, mouse; conditions: 30 min before zymosan i.p., peritoneal exudate at 2 h
Source text: Inhibition of zymosan-induced peritoneal inflammation in mice: Female Balb/c mice, 6-8 weeks old, obtained from the Animal Resources Center of the Health Sciences Center, Kuwait University, were used. They were maintained under temperature-controlled conditions with an artificial 12-h light/dark cycle and allowed standard chow and water ad libitum. The study protocol was approved by the “Health Sciences Center Animal Welfare Committee” and complied with the “Guidelines for the Care and Use of Laboratory Animals” of the Health Sciences Centre, Kuwait University. The zymosan-induced peritonitis model-a recognized LT-mediated inflammatory reaction, described particularly in Hanke et al., 2013 ([…]., et al. (2013). Journal of medicinal chemistry, 56(22), 9031-9044) was used. […] After 30 min, all groups were injected intraperitonally with 0.2 ml of activated zymosan (2 mg/ml) except the control group that received 0.2 ml PBS. After 2 h, all animals were killed and the peritoneal exudate was collected by washing the cavity with 3 ml of heparinized (10 IU/ml) PBS.

[2] = tested on: LTC4 release from IgE/antigen-activated mouse mast cells (BMMC); assay: Inhibition of LTC4 release in allergen/IgE-activated bone marrow-derived mouse mast cells; format: cell-based; conditions: BMMC, anti-DNP IgE sensitized, DNP-BSA 30 ng/ml, 30 min
Source text: (§1) Inhibition of LTC4 release and degranulation in allergen/IgE-activated bone marrow-derived mouse mast cells (BMMC): Bone marrow-derived mast cells (BMMC) were generated from pathogen-free 5-7 week old male Balb/c mice according to the method of Davis et al., [2004] (Davis, B. J., et al., (2004), Journal of Immunology, 173: 6914-6920). Essentially, bone marrow cells were obtained by flushing of the femoral bone marrow and cultured in RPMI 1640 medium supplemented with 10% FBS, 100 U/ml penicillin, and 100 μg/ml streptomycin, 25 mM HEPES, 1.0 mM sodium pyruvate, 0.1 mM nonessential amino acids, 0.0035% 2-mercaptoethanol, and 30 ng/ml mouse recombinant IL-3, with culture medium replaced every two days. Cells were used after 4-8 weeks of culture, by which time at least 97% of the cells would have differentiated into mast cells.
(§2) The generated BMMCs were seeded at 5×10^4 cells/well in a 96-well flat-bottom culture plate and passively sensitized overnight with 0.5 μg/ml anti-DNP monoclonal IgE antibody (clone SPE-7, Sigma-Aldrich, St. Louis, Mo., USA). The cells were then washed twice to remove any unbound antibody and subsequently re-suspended in reaction buffer (135 mM NaCl, 5 mM KCl, 1.8 mM CaCl2), 1 mM MgCl2, 5.6 mM glucose, 0.05% BSA and 20 mM HEPES, pH 7.4). They were then pre-incubated with the test compounds (0.01-30 μM) or the solvent (0.05% DMSO) for 15 min before being stimulated with the specific antigen, DNP-BSA (30 ng/ml). After 30 min incubation at 37° C., the amount of LTC4 released into the supernatant (as index of 5-LO activity) was determined by ELISA as described below.
Assay of released leukotrienes/β-hexoseaminidase enzyme: Appropriately diluted supernatants were assayed for the released LTs (LTB4 and LTC4), by the enzyme immunoassay (EIA) method using assay kits supplied by R&D Systems (Minneapolis, Minn., USA) and following the manufacturer's instructions.

[3] = tested on: degranulation of bone marrow-derived mouse mast cells; assay: Inhibition of degranulation (β-hexoseaminidase release) in allergen/IgE-activated BMMC; format: cell-based; conditions: anti-DNP IgE sensitized, DNP-BSA 30 ng/ml, 30 min
Source text: as §1
as §2, with “They were then pre-incubated with the test compounds (0.01-30 μM) or the solvent (0.05% DMSO) for 15 min before being stimulated with the specific antigen, DNP-BSA (30 ng/ml).” left out
The concurrently-released granular enzyme, β-hexoseaminidase (as index of degranulation) was determined as described below.
The beta-hexoseaminidase released into the supernatant by the degranulating BMMCs was determined colorimetrically using p-nitrophenyl-N-acetyl-β-D-glucosaminide as substrate. […] The absorbance of the colored product (p-nitrophenol) was then read at 405 nm in a microplate reader. Results were expressed as percentage of the total cell content (determined in cells lysed with 0.1% triton-x-100).

isolated human monocytes = assay: In vitro toxicity testing (MTT viability); format: cell-based; conditions: concentrations up to 50 μM, 3 h or 24 h, n=3
Procedure: In Vitro Toxicity Testing: Adherent human monocytes, prepared as described above, were used. The cells were cultured with various concentrations of the test compounds or vehicle, or with 0.05% Triton-X as positive control for 3 h or 24 h. At the end of the culture, cell viability was determined using the MTT (3-(4,5 dimethylthiazol-2-yl)-2,5-diphenyltetrazolium bromide) assay method. Briefly, 15 μl of the MTT solution (5 mg/ml) was added to each well, and incubated at 37° C. for 4 h. After removing the supernatant, 200 μl of dimethylsulfoxide (DMSO) was added to dissolve the crystals. Absorbance at 570 nm was then measured in a microplate reader. Viability was expressed as percentage of the vehicle-treated cells.

[4] = target: T1, recombinant human 5-LO enzyme (Homo sapiens, UniProt P09917); assay: Direct 5-LO inhibitory activity in a cell-free assay (H2DCF-DA fluorescence); format: biochemical; conditions: cell-free, recombinant human 5-LO; read-out: Inhibitory Activity IC50, Human recomb. 5-LO
T1 sequence (P09917 1-674): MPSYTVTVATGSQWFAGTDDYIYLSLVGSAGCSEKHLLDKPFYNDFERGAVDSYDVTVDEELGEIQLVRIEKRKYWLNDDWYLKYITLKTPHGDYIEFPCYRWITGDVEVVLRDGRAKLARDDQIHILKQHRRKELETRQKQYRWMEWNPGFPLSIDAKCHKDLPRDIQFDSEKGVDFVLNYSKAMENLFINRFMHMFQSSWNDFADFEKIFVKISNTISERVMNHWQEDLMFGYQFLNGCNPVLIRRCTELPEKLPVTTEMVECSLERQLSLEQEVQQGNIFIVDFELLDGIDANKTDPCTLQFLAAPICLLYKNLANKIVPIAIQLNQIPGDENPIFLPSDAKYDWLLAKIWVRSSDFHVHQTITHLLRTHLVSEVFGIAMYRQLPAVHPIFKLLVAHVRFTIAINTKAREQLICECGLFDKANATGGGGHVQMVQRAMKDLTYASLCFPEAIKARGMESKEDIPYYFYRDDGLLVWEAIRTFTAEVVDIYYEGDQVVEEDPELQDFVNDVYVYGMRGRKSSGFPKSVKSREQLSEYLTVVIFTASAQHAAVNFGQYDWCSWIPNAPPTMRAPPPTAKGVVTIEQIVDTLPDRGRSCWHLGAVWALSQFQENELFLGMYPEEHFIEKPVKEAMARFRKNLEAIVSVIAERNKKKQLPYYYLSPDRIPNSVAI
Procedure: H2DCF-DA (60 μM) was first pre-cleaved by incubating with 450 mU/ml recombinant human 5-LO enzyme in Tris buffer (containing 50 mM Tris, pH=7.5, 2 mM EDTA, 2 mM CaCl2), 1 mM dithiothreitol (DTT) and 0.6 U/ml glutathione peroxidase) for 10 min at room temperature. […] After 10 min incubation at room temperature, the reaction was started with the addition of 50 μl of the substrate solution (Tris buffer containing 20 μM ATP and 20 μM arachidonic acid). After a further 20 min, the reaction was terminated with 100 μl acetonitrile. Fluorescence was read at 500 nm excitation and 520 emission, with Novostar® microplate reader (BMG Labtech, Offenburg, Germany). Appropriate controls, including 100 μM nordihydroguaiaretic acid (NDGA), were included to isolate only the 5-LO-attributable, NDGA-inhibitable RFU values.

SMILES | Net Exudate Vol ([1]; 3 mg/kg s.c.) | Total Cell No ([1]; 3 mg/kg s.c.) | Total LTC4 ([1]; 3 mg/kg s.c.) | Net Exudate Vol ([1]; 10 mg/kg s.c.) | Total Cell No ([1]; 10 mg/kg s.c.) | Total LTC4 ([1]; 10 mg/kg s.c.) | Net Exudate Vol ([1]; 30 mg/kg s.c.) | Total Cell No ([1]; 30 mg/kg s.c.) | Total LTC4 ([1]; 30 mg/kg s.c.) | Net Exudate Vol ([1]; 30 mg/kg s.c., listed as Zil) | Inhibition of generation of LTC4 from IgE/allergen-activated mast cells (FIG. 2A) [2] | Inhibition of degranulation (release of granular β-hexoseaminidase) (FIG. 2B) [3] | Effect on viability of isolated human monocytes (MTT) (isolated human monocytes) | IC50 [4] | melting point
CC(c1cc2ccccc2s1)N(O)C(N)=O (racemic) [Zileuton, (±)1-(1-(benzo[b]thiophen-2-yl)ethyl)-1-hydroxyurea, reference compound] | 0.14 ± 0.04 mL | 16.7 ± 2.8 ×10^6 | 71.0 ± 12.4 ng | 0.20 ± 0.07 mL | 24.9 ± 2.1 ×10^6 | 97.2 ± 47.3 ng | no significant effect on exudate volume | 19.1 ± 4.4 ×10^6 | 48.3 ± 9.8 ng | 0.10 ± 0.05 mL | equally effective in inhibiting the generation of LTC4 | only the representative compounds were able to inhibit degranulation | – | – | –
CCCCCC(=O)N(O)C[C@H]1CN(c2ccc(N3CCOCC3)c(F)c2)C(=O)O1 [PH-247, (R)—N-((3-(3-fluoro-4-morpholinophenyl)-2-oxooxazolidin-5-yl)methyl)-N-hydroxyhexanamide] | – | – | – | – | – | – | – | – | – | – | – | – | no significant effect on cell viability | 3400 nM | 118.5 to 120.5 °C
CCCCCCC(=O)N(O)C[C@H]1CN(c2ccc(N3CCOCC3)c(F)c2)C(=O)O1 [PH-249, (R)—N-((3-(3-fluoro-4-morpholinophenyl)-2-oxooxazolidin-5-yl)methyl)-N-hydroxyheptanamide] | – | – | – | 0.16 ± 0.08 mL | 39.7 ± 6.6 ×10^6 | 107.2 ± 51.6 ng | 0.06 ± 0.01 mL | 17.8 ± 2.2 ×10^6 | 102.8 ± 20.9 ng | – | equally effective in inhibiting the generation of LTC4 | able to inhibit degranulation | no significant effect on cell viability | 1900 nM | 123 to 125 °C

From patent US11608320B2, “Oxazolidinone hydroxamic acid derivatives” (KUWAIT UNIVERSITY, priority 2020, dated 2023)
